Results reported in PubChem BioAssay (NCI).
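Growth conditions: 96-well plates. Treatment: test compound, 48 hours, 5 concentrations. Analysis: linear interpolation between bracketing concentrations; unreached endpoints set to highest concentration. GI50: concentration for 50% inhibition of growth. TGI: concentration producing complete growth inhibition.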

Tests used:
Assay in all cases: NCI-60 cell line screen, 48 h
HL-60(TB) leukemia = test system: HL-60(TB) leukemia
HT29 colon = test system: HT29 colon
SN12C renal = test system: SN12C renal
SR leukemia = test system: SR leukemia
KM12 colon = test system: KM12 colon
A549 NSCLC = test system: A549 NSCLC
SNB-75 CNS = test system: SNB-75 CNS
SNB-19 CNS = test system: SNB-19 CNS
UO-31 renal = test system: UO-31 renal
SK-MEL-28 melanoma = test system: SK-MEL-28 melanoma

SMILES | TGI (HL-60(TB) leukemia) [µM] | TGI (HT29 colon) [µM] | TGI (SN12C renal) [µM] | TGI (SR leukemia) [µM] | TGI (KM12 colon) [µM] | TGI (A549 NSCLC) [µM] | TGI (SNB-75 CNS) [µM] | TGI (SNB-19 CNS) [µM] | TGI (UO-31 renal) [µM] | TGI (SK-MEL-28 melanoma) [µM] | GI50 (HL-60(TB) leukemia) [µM] | GI50 (HT29 colon) [µM] | GI50 (SN12C renal) [µM] | GI50 (SR leukemia) [µM] | GI50 (KM12 colon) [µM] | GI50 (A549 NSCLC) [µM] | GI50 (SNB-75 CNS) [µM] | GI50 (SNB-19 CNS) [µM] | GI50 (UO-31 renal) [µM] | GI50 (SK-MEL-28 melanoma) [µM]
O=C(NC1C=Nc2ccccc2NC1=O)c1ccccc1Cl (stereo not drawn) | 54.1 | > 100 | > 100 | > 100 | > 100 | > 100 | > 100 | > 100 | > 100 | > 100 |  |  |  |  |  |  |  |  |  | 
O=c1[nH]cnc2c1ncn2CCCCO | > 100 | > 100 | > 100 | > 100 | > 100 | > 100 | > 100 | > 100 | > 100 | > 100 |  |  |  |  |  |  |  |  |  | 
COC(=O)C1C(/C=C/c2ccoc2)ON2CCC[C@@H]12 (stereo partly drawn) | > 100 | > 100 | > 100 | > 100 | > 100 | > 100 | > 100 | > 100 | > 100 | > 100 |  |  |  |  |  |  |  |  |  | 
COC1OC(C(C)O)C2OC(C)(C)OC12 (stereo not drawn) | > 100 | > 100 | > 100 | > 100 | > 100 | > 100 | > 100 | > 100 | > 100 | > 100 |  |  |  |  |  |  |  |  |  | 
O=C(Cn1c2ccccc2c2ccncc21)N/N=C\c1ccc2ccccc2c1 | > 100 | 50.3 | 46.6 | > 100 | > 100 | 57.1 | 61.6 | 42.4 | 45.6 | 79.7 | 29 | 21.7 | 14.7 | 6.39 | 29.6 | 20.9 | 22.2 | 17.7 | 13.3 | 19.2
COc1cc(-c2oc3c(OC)c(O)cc(O)c3c(=O)c2OC)ccc1O | > 33.3 | > 100 | > 100 | > 26.7 | > 100 | > 100 | 27.1 | > 100 | 14.8 | > 100 |  |  |  |  |  |  |  |  |  | 
CCOC(=O)C1Oc2ccc([N+](=O)[O-])cc2C1(C)O (stereo not drawn) | > 100 | > 100 | > 100 | > 100 | > 100 | > 100 | > 100 | > 100 | > 100 | > 100 |  |  |  |  |  |  |  |  |  | 
Cc1cn(Cc2ccccc2CCl)c(=O)n(Cc2ccccc2CCl)c1=O | 3.24 | 5.69 | 6.97 | 3.25 | 4.48 | 14.2 | 3.79 | 6.66 | 3.17 | 5.49 | 1.37 | 2.04 | 2.65 | 0.661 | 1.99 | 3.9 | 1.81 | 2.57 | 1.65 | 2.21
COC(=O)c1nc(N)nc(C(=O)OC)c1C(=O)c1ccccc1 | > 100 | > 100 | > 100 | > 100 | > 100 | > 100 | > 100 | > 100 | > 100 | > 100 |  |  |  |  |  |  |  |  |  | 
Cn1ncnc1C1c2n[nH]c(=O)c3cc(F)cc(c23)NC1c1ccc(F)cc1 (stereo not drawn) | > 100 | > 100 | > 100 | > 62.5 | > 100 | > 100 | > 100 | > 100 | > 100 | > 100 | 4.86 | > 100 | 4.43 | < 0.0265 | > 100 | 7.9 | 9.8 | 11.2 | 11.9 | > 100
COc1ccc(/C(C#N)=C(/N)SCc2ccccc2Cl)cc1 | 63.4 | 33.3 | 91.3 | > 100 | > 10 | > 100 | 63.6 | > 10 | > 10 | 35.8 |  |  |  |  |  |  |  |  |  | 
COC1(Cc2ccccc2)C(=O)c2ccccc2N1C(C)=O (stereo not drawn) | > 100 | > 100 | > 100 | > 100 | > 100 | > 100 | > 100 | > 100 | > 100 | > 100 |  |  |  |  |  |  |  |  |  | 
CN(C)C(=S)SCC(N)=O | > 100 | > 100 | > 100 | > 100 | > 100 | > 100 | > 100 | > 100 |  | > 100 |  |  |  |  |  |  |  |  |  | 
CCCCCCCCCCCCCCCCCc1nnc(N)o1 | > 100 | > 100 | > 100 | > 100 | > 100 | > 100 | > 100 | > 100 | > 100 | > 100 |  |  |  |  |  |  |  |  |  | 
COc1cc2c(cc1OCCCCCn1c3ccccc3c3ccccc31)N=C[C@@H]1CCCN1C2=O | 4.38 | 5.29 | 4.16 | > 100 | 3.74 | 3.02 | 2.58 | 4.04 | 2.93 | 3.5 | 1.72 | 2.08 | 1.94 | 15.4 | 1.96 | 1.57 | 1.05 | 2.05 | 1.52 | 1.8
CCCCN(CCCC)CCC(O)c1cc2ccc(C(F)(F)F)cc2c2cc(C(F)(F)F)ccc12 (stereo not drawn) | 3.42 | 4.41 | 14.6 | 6.41 | 9.24 | 12.1 | 15 | 15.3 | 12.4 | 4.23 | 1.44 | 2 | 3.84 | 1.61 | 2.93 | 3.12 | 3.46 | 3.92 | 1.89 | 2.21
[O-][n+]1c2cc(CN3CCOCC3)c(CN3CCOCC3)cc2[n+]([O-])c2c(O)cccc21 | 10.9 | 9.18 | 13 | 0.701 | 8.55 | > 25.3 | 21.3 | > 40.8 | 10.4 | 32.5 |  |  |  |  |  |  |  |  |  | 
Cc1cccc(N=C2NC(=O)C(CC(=O)Nc3ccccc3Cl)S2)c1 (stereo not drawn) | > 100 | > 100 | > 100 | > 100 |  | > 100 | > 100 | > 100 | > 100 | > 100 |  |  |  |  |  |  |  |  |  | 
